Like-named read-outs stand apart in the source and are kept apart here.
Legend:
[1] = physicochemical properties: solubility
Bacillus subtilis DSM 10 [2] = experiment: MIC dilution series test; type: cell-based; conditions: 2 ml test tube scale, shaker at 120 rpm
Procedure: (§1) The minimum inhibitory concentration (MIC) of abyssomicin C was determined in a dilution series test. As expected, the test organisms are substantially more sensitive to abyssomicin C in chemically defined medium.

[3] = test system: Staphylococcus aureus DSM 20231; experiment: MIC dilution series test; type: cell-based; conditions: CM (complex medium); 2 ml test tube scale, shaker at 120 rpm
Procedure: as §1

[4] = test system: Rhodococcus erythropolis DSM 1069; experiment: MIC dilution series test; type: cell-based; conditions: CM (complex medium); 2 ml test tube scale, shaker at 120 rpm
Procedure: as §1

[5] = test system: Brevibacillus brevis DSM 30; experiment: agar diffusion test; type: cell-based; conditions: 10 μl per filter disk
Procedure: (§2) The Gram-negative bacteria and fungi which were tested were insensitive to the abyssomicins.

[6] = test system: Streptomyces viridochromogenes Tü 57; experiment: agar diffusion test; type: cell-based; conditions: CM, 10 μl per filter disk
Procedure: as §2

Bacillus subtilis DSM 10 [7] = experiment: agar diffusion test; type: cell-based; conditions: 10 μl per filter disk
Procedure: as §2

[8] = test system: Staphylococcus aureus DSM 20231; experiment: agar diffusion test; type: cell-based; conditions: CM, 10 μl per filter disk
Procedure: as §2

[9] = test system: Rhodococcus erythropolis DSM 1069; experiment: agar diffusion test; type: cell-based; conditions: 10 μl per filter disk
Procedure: as §2

[10] = test system: Arthrobacter aurescens DSM 20166; experiment: agar diffusion test; type: cell-based; conditions: CM, 10 μl per filter disk
Procedure: as §2

Gram-positive bacteria = experiment: agar diffusion test, activity spectrum; type: cell-based; conditions: Gram-positive bacteria tested
Procedure: as §2

Molecule: CC1CC(C)C2(O)CC(=NO2)C2C(O)C3OC4=C(C(=O)OC42CC3C)C1=O (stereo not drawn) [abyssomicin B]
- solubility ([1]; in methanol and DMSO): soluble

Molecule: abyssomicin C
- Minimum inhibitory concentration (MIC) (Bacillus subtilis DSM 10 [2]; CM (complex medium)): 10 µg/mL
- Minimum inhibitory concentration (MIC) (Bacillus subtilis DSM 10 [2]; MM (chemically defined medium)): 0.1 µg/mL
- Minimum inhibitory concentration (MIC) [3]: 100 µg/mL
- Minimum inhibitory concentration (MIC) [4]: 10 µg/mL
- solubility [1]: soluble
- inhibition zone diameter ([5]; CM, 0.1 mg/ml): 9 mm
- inhibition zone diameter ([5]; CM, 0.3 mg/ml): 12 mm
- inhibition zone diameter ([5]; CM, 1 mg/ml): 17 mm
- inhibition zone diameter ([5]; MM, 0.1 mg/ml): 19 mm
- inhibition zone diameter ([5]; MM, 0.3 mg/ml): 24 mm
- inhibition zone diameter ([5]; MM, 1 mg/ml): 30 mm
- inhibition zone diameter ([6]; 0.3 mg/ml): 9 mm
- inhibition zone diameter ([6]; 1 mg/ml): 11 mm
- inhibition zone diameter (Bacillus subtilis DSM 10 [7]; CM, 0.1 mg/ml): 10 mm
- inhibition zone diameter (Bacillus subtilis DSM 10 [7]; CM, 0.3 mg/ml): 12 mm
- inhibition zone diameter (Bacillus subtilis DSM 10 [7]; CM, 1 mg/ml): 16 mm
- inhibition zone diameter (Bacillus subtilis DSM 10 [7]; MM, 0.1 mg/ml): 14 mm
- inhibition zone diameter (Bacillus subtilis DSM 10 [7]; MM, 0.3 mg/ml): 19 mm
- inhibition zone diameter (Bacillus subtilis DSM 10 [7]; MM, 1 mg/ml): 26 mm
- inhibition zone diameter ([8]; 0.1 mg/ml): 9 mm
- inhibition zone diameter ([8]; 0.3 mg/ml): 11 mm
- inhibition zone diameter ([8]; 1 mg/ml): 19 mm
- inhibition zone diameter ([9]; CM (first line, r17), 0.1 mg/ml): 15 mm
- inhibition zone diameter ([9]; CM (first line, r17), 0.3 mg/ml): 18 mm
- inhibition zone diameter ([9]; CM (first line, r17), 1 mg/ml): 27 mm
- inhibition zone diameter ([9]; CM (second line, r18), 0.1 mg/ml): 21 mm
- inhibition zone diameter ([9]; CM (second line, r18), 0.3 mg/ml): 28 mm
- inhibition zone diameter ([9]; CM (second line, r18), 1 mg/ml): 30 mm
- inhibition zone diameter ([10]; 0.3 mg/ml): 10 mm
- inhibition zone diameter ([10]; 1 mg/ml): 14 mm
- antibiotic effect (Gram-positive bacteria): antibiotic effect

Molecule: CC1CC(C)/C(O)=C2/C(=O)OC34CC(C)C5OC23C(CC4C5O)C1=O (stereo not drawn) [abyssomicin D]
- solubility ([1]; in methanol and DMSO): soluble
